Laboratory results from publication PMC5880808, “A lever-like transduction pathway for long-distance chemical- and mechano-gating of the mechanosensitive Piezo1 channel” (Nature Communications, 2018).

How the values were obtained:
mPiezo1 [1] = molecular target: T1, mPiezo1 (Mus musculus, UniProt E2JF22); test: FLIPR GCAMP6s Ca2+ response of transfected HEK293T cells; type: cell-based; conditions: for EC50: Boltzmann fit, vector signal subtracted
T1 construct: The full-length mPiezo1 has 2547 amino acids in each monomer; expressed in transfected cells; host or cells: HEK293T
T1 sequence (E2JF22 whole entry): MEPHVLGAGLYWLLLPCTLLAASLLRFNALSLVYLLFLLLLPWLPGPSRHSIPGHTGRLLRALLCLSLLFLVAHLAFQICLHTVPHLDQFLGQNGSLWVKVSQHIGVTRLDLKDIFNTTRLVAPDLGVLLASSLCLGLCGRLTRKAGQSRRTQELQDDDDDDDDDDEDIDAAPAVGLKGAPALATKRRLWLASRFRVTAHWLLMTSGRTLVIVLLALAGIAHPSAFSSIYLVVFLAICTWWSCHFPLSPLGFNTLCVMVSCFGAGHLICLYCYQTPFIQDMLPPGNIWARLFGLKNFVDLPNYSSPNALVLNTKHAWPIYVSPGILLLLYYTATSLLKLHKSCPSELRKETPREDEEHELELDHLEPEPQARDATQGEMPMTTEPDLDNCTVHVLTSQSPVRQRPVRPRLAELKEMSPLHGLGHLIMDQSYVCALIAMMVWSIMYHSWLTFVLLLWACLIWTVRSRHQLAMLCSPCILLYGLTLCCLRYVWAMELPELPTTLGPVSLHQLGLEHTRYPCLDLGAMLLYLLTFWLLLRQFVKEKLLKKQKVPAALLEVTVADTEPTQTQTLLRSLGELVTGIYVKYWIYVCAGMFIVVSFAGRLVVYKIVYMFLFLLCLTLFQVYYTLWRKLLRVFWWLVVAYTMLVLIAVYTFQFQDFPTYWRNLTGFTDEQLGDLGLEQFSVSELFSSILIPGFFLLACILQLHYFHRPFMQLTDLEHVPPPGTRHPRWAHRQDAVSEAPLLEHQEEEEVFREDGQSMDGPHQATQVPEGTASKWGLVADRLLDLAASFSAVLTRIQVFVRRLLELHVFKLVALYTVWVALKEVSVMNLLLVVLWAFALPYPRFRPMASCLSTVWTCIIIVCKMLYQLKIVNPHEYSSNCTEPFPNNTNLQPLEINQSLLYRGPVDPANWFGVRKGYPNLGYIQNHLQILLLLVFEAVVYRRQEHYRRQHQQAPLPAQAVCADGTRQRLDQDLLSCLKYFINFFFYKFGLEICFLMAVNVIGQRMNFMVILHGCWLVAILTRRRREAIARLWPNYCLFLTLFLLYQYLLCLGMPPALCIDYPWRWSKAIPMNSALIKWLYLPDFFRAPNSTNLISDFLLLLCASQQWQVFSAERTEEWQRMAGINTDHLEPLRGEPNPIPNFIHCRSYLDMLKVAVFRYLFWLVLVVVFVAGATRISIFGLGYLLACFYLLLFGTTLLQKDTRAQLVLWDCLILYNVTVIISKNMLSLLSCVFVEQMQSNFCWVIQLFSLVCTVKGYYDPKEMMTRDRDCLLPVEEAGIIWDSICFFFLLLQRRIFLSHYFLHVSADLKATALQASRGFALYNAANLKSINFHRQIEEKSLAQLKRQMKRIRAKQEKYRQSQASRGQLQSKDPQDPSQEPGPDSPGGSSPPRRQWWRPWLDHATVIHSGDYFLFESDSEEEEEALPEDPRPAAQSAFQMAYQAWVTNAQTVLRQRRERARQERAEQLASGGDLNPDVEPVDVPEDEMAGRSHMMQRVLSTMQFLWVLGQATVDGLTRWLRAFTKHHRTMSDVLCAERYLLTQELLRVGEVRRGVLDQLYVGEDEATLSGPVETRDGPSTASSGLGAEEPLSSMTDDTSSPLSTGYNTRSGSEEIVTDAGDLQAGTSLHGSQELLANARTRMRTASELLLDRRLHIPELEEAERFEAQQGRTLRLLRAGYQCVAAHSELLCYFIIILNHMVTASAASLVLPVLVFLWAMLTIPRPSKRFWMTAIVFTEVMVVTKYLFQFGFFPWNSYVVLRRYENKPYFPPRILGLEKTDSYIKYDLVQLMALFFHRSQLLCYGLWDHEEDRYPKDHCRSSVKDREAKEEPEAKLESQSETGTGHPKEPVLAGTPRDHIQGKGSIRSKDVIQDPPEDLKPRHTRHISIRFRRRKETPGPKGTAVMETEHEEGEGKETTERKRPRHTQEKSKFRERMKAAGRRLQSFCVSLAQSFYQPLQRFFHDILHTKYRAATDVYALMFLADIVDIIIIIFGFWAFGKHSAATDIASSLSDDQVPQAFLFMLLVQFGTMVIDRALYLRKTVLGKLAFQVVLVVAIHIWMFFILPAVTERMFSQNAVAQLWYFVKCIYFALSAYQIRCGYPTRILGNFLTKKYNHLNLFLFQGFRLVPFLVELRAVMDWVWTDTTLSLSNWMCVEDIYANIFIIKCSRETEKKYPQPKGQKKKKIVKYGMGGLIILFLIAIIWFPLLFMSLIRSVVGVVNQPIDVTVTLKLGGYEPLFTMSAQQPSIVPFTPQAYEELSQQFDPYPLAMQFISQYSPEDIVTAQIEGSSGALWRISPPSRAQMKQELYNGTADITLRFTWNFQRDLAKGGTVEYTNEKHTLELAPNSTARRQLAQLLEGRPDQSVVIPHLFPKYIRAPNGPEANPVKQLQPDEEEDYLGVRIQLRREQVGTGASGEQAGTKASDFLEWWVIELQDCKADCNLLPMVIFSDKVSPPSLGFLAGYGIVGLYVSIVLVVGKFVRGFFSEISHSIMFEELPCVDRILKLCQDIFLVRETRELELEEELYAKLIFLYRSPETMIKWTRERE
Excerpt: Pharmacological compounds are invaluable tools for probing the structure-function relationship of ion channels. To identify specific chemical activators of Piezo channels, we have used the fluorescent imaging plate reader (FLIPR) in a 96-well format to screen about 3000 compounds for those that can evoke Ca^2+ increase in human embryonic kidney 293T (HEK293T) cells co-transfected with either mPiezo1 or mPiezo2, and the genetically encoded Ca^2+ reporter GCAMP6s (high Ca^2+ sensitivity but slow kinetics)[43]. We initially selected compounds that evoked Ca^2+ response in either Piezo1- or Piezo2-transfected cells and subsequently ruled out those nonspecific hits that caused Ca^2+ response in Piezo1-, Piezo2-, and vector-transfected cells (Fig. 2a). Eventually, we identified Jedi1 and Jedi2 as Piezo1 chemical activators, but no specific Piezo2 activators.
(§1) HEK293T cells were grown in Dulbecco’s modified Eagle medium containing 4.5 mg/ml glucose, 10% fetal bovine serum, and 1% penicillin/streptomycin. Cells were seeded in 50 μg/ml poly-D-lysine-coated 96-well plates (3 × 10^4 cells/well) and allowed to grow for about 18 h, and then co-transfected with a total of 250 ng cDNA containing Piezo1 or Piezo2 and GCaMP6s using Lipofectamine 2000 (Invitrogen, Life Technology). Two days after transfection the cells were washed with buffer containing 1× Hanks’ balanced salt solution (HBSS; 1.3 mM Ca^2+) and 10 mM HEPES (pH 7.2). The 96-well plates were then transferred to the FLIPR Tetra (Molecular Device) for monitoring the GCAMP6s fluorescence before and after addition of the compounds that were prepared in separate compound plates. For the initial screening, we screened about 3000 compounds derived from either the chemical library collected in Dr. Yu Rao’s lab, which is composed of different classes of heterocycles, including various drug scaffold or the Maybridge Ro3 Diversity Fragment Library purchased from Maybridge (Cambridge, UK), which consists of 2500 fragment compounds with a molecular weight below 350 and high rule of three compliance. Each compound was tested at a final concentration of 200 μM. Approximately 20 positive hits were selected for further testing in Piezo1-, Piezo2-, or vector-transfected cells. For subsequent characterizations, Jedi1 was purchased from the company of Alfa Aesar, while Jedi2 and Yoda1 were synthesized in the laboratories of Drs. Wei He and Liansuo Zu, respectively. See the Supplementary Experiment Procedures for the chemical synthesis. The dose response measurement by FLIPR was similar to previously described.

mPiezo1 [2] = molecular target: T1, mPiezo1; test: Cell-attached patch with pressure clamp (stretch-activated currents); type: cell-based; conditions: for slope sensitivity (s): DMSO 14.1 ± 0.7; for P50 (the pressure required for half maximal activation): DMSO −27.0 ± 3.4
Protocol: Stretch-activated currents were recorded in the cell-attached patch-clamp configuration as previously described. Currents were sampled at 20 kHz and filtered at 2 kHz. Pipette was filled with a solution consisting of (in mM) 130 NaCl, 5 KCl, 10 HEPES, 1 CaCl2, 1 MgCl2, and 10 TEA-Cl (pH 7.3, balanced with NaOH). The external solution used to zero the membrane potential consisted of (in mM) 140 KCl, 10 HEPES, 1 MgCl2, and 10 glucose (pH 7.3 with KOH). All experiments were done at room temperature. Membrane patches were stimulated with negative pressure pulses for 500 ms through the recording electrode using a Patchmaster-controlled pressure clamp HSPC-1 device (ALA-scientific). Stretch-activated channels were recorded at a holding potential of −80 mV with pressure steps from 0 to −100 mm Hg (−10 mm Hg increments), and 4–11 recording traces were averaged per cell for analysis. Current-pressure relationships were fitted with a Boltzmann equation of the form: I(P) = [1 + exp (−(P – P50)/s)]^−^1, where I is the peak of stretch-activated current at a given pressure, P is the applied patch pressure (in mm Hg), P50 is the pressure value that evoked a current value which is 50% of Imax, and s reflects the current sensitivity to pressure.

[3] = test system: mPiezo1 loop deletion mutants ΔL15-16 (657-677) and ΔL19-20 (870–921); test: FLIPR GCAMP6s Ca2+ dose response, loop deletion mutants; type: cell-based, mouse; conditions: ΔL15-16 and ΔL19-20, FLIPR
Protocol: as §1, with “For subsequent characterizations, Jedi1 was purchased from the company of Alfa Aesar, while Jedi2 and Yoda1 were synthesized in the laboratories of Drs. Wei He and Liansuo Zu, respectively. See the Supplementary Experiment Procedures for the chemical synthesis. The dose response measurement by FLIPR was similar to previously described.” left out

Human Piezo1 (hPiezo1) = molecular target: T2, Human Piezo1 (hPiezo1) (Homo sapiens, UniProt Q92508); test: Fura-2 single-cell Ca2+ imaging of hPiezo1-expressing cells; type: cell-based
T2 construct: expressed in transfected cells; host or cells: HEK293T
T2 sequence (Q92508 whole entry): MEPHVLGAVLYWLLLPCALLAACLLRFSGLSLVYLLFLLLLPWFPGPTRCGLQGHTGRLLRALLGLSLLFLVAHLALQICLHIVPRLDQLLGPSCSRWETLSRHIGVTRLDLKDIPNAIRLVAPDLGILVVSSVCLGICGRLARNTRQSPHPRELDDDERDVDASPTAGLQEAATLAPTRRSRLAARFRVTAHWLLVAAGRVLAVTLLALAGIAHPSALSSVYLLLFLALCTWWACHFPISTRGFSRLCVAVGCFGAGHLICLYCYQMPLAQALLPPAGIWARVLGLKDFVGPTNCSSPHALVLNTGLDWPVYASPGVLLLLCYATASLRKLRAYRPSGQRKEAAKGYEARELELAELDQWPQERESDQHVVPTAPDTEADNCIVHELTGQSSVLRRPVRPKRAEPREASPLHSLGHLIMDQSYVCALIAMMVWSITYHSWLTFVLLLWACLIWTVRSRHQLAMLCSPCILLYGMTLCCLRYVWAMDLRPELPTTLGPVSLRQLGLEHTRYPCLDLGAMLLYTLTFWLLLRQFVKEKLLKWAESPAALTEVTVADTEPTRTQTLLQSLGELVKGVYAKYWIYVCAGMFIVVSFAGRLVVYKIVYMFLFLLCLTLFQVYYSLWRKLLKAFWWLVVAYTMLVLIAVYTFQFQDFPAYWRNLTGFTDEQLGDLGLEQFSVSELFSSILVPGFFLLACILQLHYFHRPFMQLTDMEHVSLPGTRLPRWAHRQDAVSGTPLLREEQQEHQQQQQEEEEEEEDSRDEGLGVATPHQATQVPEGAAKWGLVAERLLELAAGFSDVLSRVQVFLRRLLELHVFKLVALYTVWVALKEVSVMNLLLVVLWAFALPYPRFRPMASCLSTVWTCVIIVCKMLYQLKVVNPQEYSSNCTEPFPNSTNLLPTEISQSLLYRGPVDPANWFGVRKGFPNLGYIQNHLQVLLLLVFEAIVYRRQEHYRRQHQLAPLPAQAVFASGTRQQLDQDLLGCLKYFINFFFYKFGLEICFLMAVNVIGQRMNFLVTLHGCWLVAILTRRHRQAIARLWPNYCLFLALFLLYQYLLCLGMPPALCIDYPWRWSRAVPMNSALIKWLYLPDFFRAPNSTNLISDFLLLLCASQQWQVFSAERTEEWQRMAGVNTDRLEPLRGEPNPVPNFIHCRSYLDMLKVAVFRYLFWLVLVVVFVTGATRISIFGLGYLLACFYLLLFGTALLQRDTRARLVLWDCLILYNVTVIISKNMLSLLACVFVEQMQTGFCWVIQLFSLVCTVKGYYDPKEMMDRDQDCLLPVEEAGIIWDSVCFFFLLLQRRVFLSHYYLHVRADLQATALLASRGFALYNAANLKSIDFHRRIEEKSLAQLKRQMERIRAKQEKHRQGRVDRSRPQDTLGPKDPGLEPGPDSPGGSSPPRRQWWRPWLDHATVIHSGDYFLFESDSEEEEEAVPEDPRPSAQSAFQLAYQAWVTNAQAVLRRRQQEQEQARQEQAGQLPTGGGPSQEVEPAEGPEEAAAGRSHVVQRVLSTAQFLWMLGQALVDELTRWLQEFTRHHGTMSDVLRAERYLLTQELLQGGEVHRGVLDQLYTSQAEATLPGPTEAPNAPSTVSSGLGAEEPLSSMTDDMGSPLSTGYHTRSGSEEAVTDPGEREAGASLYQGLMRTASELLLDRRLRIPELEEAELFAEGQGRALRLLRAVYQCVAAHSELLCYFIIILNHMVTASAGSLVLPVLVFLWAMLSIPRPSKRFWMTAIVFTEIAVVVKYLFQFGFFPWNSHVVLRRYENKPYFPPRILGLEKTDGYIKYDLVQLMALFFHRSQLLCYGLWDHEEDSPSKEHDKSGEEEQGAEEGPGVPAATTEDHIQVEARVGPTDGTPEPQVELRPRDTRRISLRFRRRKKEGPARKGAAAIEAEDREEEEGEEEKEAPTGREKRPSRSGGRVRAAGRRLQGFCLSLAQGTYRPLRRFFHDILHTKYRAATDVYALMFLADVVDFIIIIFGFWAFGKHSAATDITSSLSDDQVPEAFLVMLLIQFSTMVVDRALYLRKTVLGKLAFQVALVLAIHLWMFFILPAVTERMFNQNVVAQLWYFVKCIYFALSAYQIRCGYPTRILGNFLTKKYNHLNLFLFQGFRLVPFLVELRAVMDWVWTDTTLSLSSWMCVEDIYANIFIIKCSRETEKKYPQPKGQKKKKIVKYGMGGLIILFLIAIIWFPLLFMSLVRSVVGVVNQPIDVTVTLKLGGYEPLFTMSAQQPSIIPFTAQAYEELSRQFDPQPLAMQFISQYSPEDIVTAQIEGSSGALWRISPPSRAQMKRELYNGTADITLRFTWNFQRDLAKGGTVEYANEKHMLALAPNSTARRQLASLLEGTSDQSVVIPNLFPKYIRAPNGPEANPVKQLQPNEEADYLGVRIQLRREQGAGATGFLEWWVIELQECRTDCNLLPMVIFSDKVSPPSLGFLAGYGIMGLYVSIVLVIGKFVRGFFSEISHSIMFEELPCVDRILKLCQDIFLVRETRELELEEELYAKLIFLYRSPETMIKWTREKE
Protocol: Fura-2 single-cell Ca^2+ imaging was performed according to the previous protocol. In brief, mCherry-Piezo1 cDNA (1 μg)-transfected HEK293T cells were plated onto 12-mm round glass coverslips, which were coated with poly-D-lysine and placed in 24-well plates, and subject to Fura-2 single-cell Ca^2+ imaging about 36 h post transfection. Cells were washed with buffer containing 1× HBSS (1.3 mM Ca^2+) and 10 mM HEPES (pH 7.2), incubated with 2.5 μM Fura-2 and 0.05% Pluronic F-127 (Life Technologies) for 30 min, then washed again with the previously mentioned buffer. The coverslip was mounted into an inverted Nikon-Tie microscope equipped with a CoolSNAP charge-coupled devise (CCD) camera and Lambda XL light box (Sutter Instrument), and mCherry-positive and -negative cells were selected for measurement of the 340/380 ratio with a ×20 objective (numerical aperture 0.75) using the MetaFluor Fluorescence Ratio Imaging software (Molecular Device).

[4] = test system: mPiezo1 loop deletion mutants ΔL15-16 (657-677) and ΔL19-20 (870–921); design: method as in PMID 29469092; conditions: ΔL15-16 and ΔL19-20; cited from earlier work
[5] = test system: mPiezo1 loop deletion mutants ΔL15-16 (657-677) and ΔL19-20 (870–921); design: method as in PMID 29469092; conditions: ΔL15-16 and ΔL19-20; cited from earlier work; remark: listed apart in the source
[6] = design: method as in PMID 26001275; conditions: up; cited from earlier work
Piezo1 = test system: Piezo1; design: method as in PMID 26001275; conditions: read-out: estimated EC50; cited from earlier work

With `Cc1oc(-c2ccccc2)cc1C(=O)O` [Jedi1] the Hill coefficient (mPiezo1 [1]) was ~ 1.5, the EC50 (mPiezo1 [1]) was roughly 200 µM and the “slope sensitivity (s)” value (mPiezo1 [2]) was 9.8 ± 1.9 mm Hg. The “maximal stretching-induced Piezo1 current” value (mPiezo1 [2]; −80 mV) was “Neither Jedi1 nor Yoda1 altered”, the “P50 (the pressure required for half maximal activation)” value (mPiezo1 [2]; −80 mV) was −16.7 ± 2.2 mm Hg and the “Ca2+ response of loop deletion mutants” value [3] was “no dose-dependent Ca^2+ responses”. The “Ca2+ response (Fura-2)” value (Human Piezo1 (hPiezo1)) was “responded to Jedi1 as well”.

With `Cc1oc(-c2cccs2)cc1C(=O)O` [Jedi2] the Hill coefficient (mPiezo1 [1]) was 1.6, the EC50 (mPiezo1 [1]) was 158 µM and the “Ca2+ response of loop deletion mutants” value [3] was “no dose-dependent Ca^2+ responses”.

For `Clc1cccc(Cl)c1CSc1nnc(-c2cnccn2)s1` [Yoda1, reference compound], the “ability to evoke Ca2+ responses in loop deletion mutants” value [4] is listed as “retained its ability”, the “ability to potentiate poking-induced currents of loop deletion mutants” value [5] is listed as “retained its ability” and the “slope sensitivity (s)” value (mPiezo1 [2]) is listed as 8.0 ± 2.4 mm Hg. The “maximal stretching-induced Piezo1 current” value (mPiezo1 [2]; −80 mV) was “Neither Jedi1 nor Yoda1 altered”, the “shift of the pressure-current relationship” value (mPiezo1 [2]; −80 mV) was “significant leftward shift” and the “P50 (the pressure required for half maximal activation)” value (mPiezo1 [2]; −80 mV) was −15.1 ± 0.9 mm Hg. The water solubility [6] was ~ 30 μM and the EC50 (Piezo1) was roughly 17.1 µM.
